Results as given in ChEMBL document CHEMBL4476871, “SULFAMIDE AND SULFAMATE INHIBITORS OF hHint1” (2018).

Tests used:
[1] = biological target: T1, Adenosine 5'-monophosphoramidase HINT1 (Homo sapiens, UniProt P49773); assay: Binding affinity to full-length human N-terminal His6-tagged Hint1 expressed in Escherichia coli Rosetta 2 pLysS cells by isothermal titration calorimetry
[2] = Solubility of the compound in DMSO; type: physicochemical
[3] = Aqueous solubility of the compound; type: physicochemical; settings: buffer
[4] = Solubility of the compound in water; type: physicochemical; settings: buffer
[5] = biological target: T1, Adenosine 5'-monophosphoramidase HINT1; assay: Inhibition of human N-terminal His6-tagged Hint1 expressed in Escherichia coli Rosetta 2 pLysS cells by fluorescence assay
Mus musculus [6] = assay: Suppression of morphine-induced analgesic tolerance in ICR mouse model of spared nerve injury-induced neuropathic pain assessed as reduction in mechanical hypersensitivity administered intrathecally for 3 days prior to morphine challenge on day 4 by Von Frey test; type: functional; settings: central
Mus musculus [7] = assay: Effect on spared nerve injury-induced ICR mouse model of neuropathic pain administered intrathecally for 3 days by Von Frey test; type: functional; settings: central, 72 h
Mus musculus [8] = assay: Suppression of morphine-induced analgesic tolerance in ICR mouse model of spared nerve injury-induced neuropathic pain assessed as reduction in mechanical hypersensitivity administered intrathecally for 3 days prior to morphine challenge on day 4 by Von Frey test relative to control; type: functional
Mus musculus [9] = assay: Effect on spared nerve injury-induced ICR mouse model of neuropathic pain administered intrathecally for 3 days by Von Frey test relative to control; type: functional

T1 sequence (P49773 whole entry): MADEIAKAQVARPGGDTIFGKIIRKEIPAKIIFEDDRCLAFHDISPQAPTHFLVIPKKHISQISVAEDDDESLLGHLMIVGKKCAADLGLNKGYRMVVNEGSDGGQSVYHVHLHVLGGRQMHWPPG

Kd [1] [µM]	solubility [2]	SMILES	other results
8.09	Insoluble	Nc1nc2c(ncn2[C@@H]2O[C@H](COC(=O)NCc3ccccc3)[C@@H](O)[C@H]2O)c(=O)[nH]1	
		Nc1nc2c(ncn2[C@@H]2O[C@H](COP(=O)(O)NCCc3c[nH]c4ccccc34)[C@@H](O)[C@H]2O)c(=O)[nH]1	solubility [3]: Soluble
		Nc1nc2c(ncn2[C@@H]2O[C@H](CSP(=O)(O)NCCc3c[nH]c4ccccc34)[C@@H](O)[C@H]2O)c(=O)[nH]1	solubility [4]: Soluble
		Nc1nc2c(ncn2C2OC(COS(=O)(=O)NC(=O)CCc3c[nH]c4ccccc34)C(O)C2O)c(=O)[nH]1 (single isomer, unassigned)	solubility [3]: Soluble
5.2		Nc1nc2c([C@@H]3O[C@H](COS(=O)(=O)NC(=O)CCc4c[nH]c5ccccc45)[C@@H](O)[C@H]3O)scc2c(=O)[nH]1	solubility [4]: Soluble
		Nc1nc2c(ncn2[C@@H]2O[C@H](CNS(=O)(=O)NC(=O)CCc3c[nH]c4ccccc34)[C@@H](O)[C@H]2O)c(=O)[nH]1	solubility [3]: Soluble
2.45	Soluble	CCNC(=O)OC[C@H]1O[C@@H](n2cnc3c(N)nc(N)nc32)[C@H](O)[C@@H]1O	
3.43	Soluble	Nc1nc2c(ncn2[C@@H]2O[C@H](COC(=O)NCCc3c[nH]cn3)[C@@H](O)[C@H]2O)c(=O)[nH]1	
		Nc1ncnc2c1ncn2[C@@H]1O[C@H](CNS(=O)(=O)NC(=O)CCCC[C@@H]2SC[C@@H]3NC(=O)N[C@@H]32)[C@@H](O)[C@H]1O	IC50 [5]: 25.5 µM
47.2	Soluble	CCN(CC)C(=O)OC[C@H]1O[C@@H](n2cnc3c(=O)[nH]c(N)nc32)[C@H](O)[C@@H]1O	
67		Nc1nc2c(ncn2[C@@H]2O[C@H](COP(=O)(O)O)[C@@H](O)[C@H]2O)c(=O)[nH]1	
	Soluble	Nc1nc2c(ncn2[C@@H]2O[C@H](COC(=O)NCCc3c[nH]c4ccccc34)[C@@H](O)[C@H]2O)c(=O)[nH]1	ED50 (Mus musculus [6]): 2.6 mg/kg; ED50 (Mus musculus [7]): 2.3 mg/kg; fold change (FC) (Mus musculus [8]): 0.8; fold change (FC) (Mus musculus [9]): 0.7
		O=C(CCc1c[nH]c2ccccc12)NS(=O)(=O)OC[C@H]1O[C@@H](n2cnc3c2ncn2ccnc32)[C@@H](O)C1O (stereo partly specified)	ED50 (Mus musculus [6]): 4.6 mg/kg; ED50 (Mus musculus [7]): 3.6 mg/kg; solubility [3]: Soluble
1.01	Soluble	Nc1nc(N)c2ncn([C@@H]3O[C@H](COC(=O)Nc4ccccc4)[C@@H](O)[C@H]3O)c2n1	
